Target: T1, REV-ERBα LBD (human; residues 281-614 Δ324-422) (Homo sapiens, UniProt P20393, DEL324-422)
T1 construct: 6×Histag-REV-ERBα LBD (human; residues 281-614 Δ324-422); made in house; host or cells: Escherichia coli
Assay: TR-FRET corepressor interaction assay (REV-ERBα LBD, FITC-SMRT peptide)
Type: biochemical
Settings: FITC-SMRT peptide, read-out: REVERBα agonism (EC50 class, FRET assay)
Method in brief: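 Compound serial dilutions (in DMSO, triplicate) incubated 2 h at 4 °C; Tb donor excited at 340 nm, emission read at 495 nm and FITC acceptor at 520 nm. TR-FRET ratio (520/495 nm) plotted against ligand concentration and fitted to a sigmoidal dose-response curve.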

T1 sequence (P20393 with tags, fused parts or gaps DEL324-422): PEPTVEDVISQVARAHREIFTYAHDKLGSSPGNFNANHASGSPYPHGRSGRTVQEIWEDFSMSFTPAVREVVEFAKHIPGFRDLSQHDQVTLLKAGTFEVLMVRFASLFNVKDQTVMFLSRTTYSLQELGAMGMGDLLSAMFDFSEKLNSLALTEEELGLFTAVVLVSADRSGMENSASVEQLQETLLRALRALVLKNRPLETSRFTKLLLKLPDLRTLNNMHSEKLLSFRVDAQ
T1 sequence (Q9Y618 2335-2356 partner limits assumed): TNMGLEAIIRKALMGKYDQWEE

First: CC(C)(C)Cn1cc([C@H](NS(=O)(=O)C2CCC2)C(F)(F)F)c2ccc(C3CCOCC3)cc21 [Example 519, (S)—N-(2,2,2-trifluoro-1-(1-neopentyl-6-(tetrahydro-2H-pyran-4-yl)-1H-indol-3-yl)ethyl)cyclobutanesulfonamide]
Second: CC(C)(C)Cn1cc([C@H](NS(=O)(=O)C2CC2)C(F)(F)F)c2ccc(-c3ccccn3)cc21 [Example 469, (S)—N-(2,2,2-trifluoro-1-(1-neopentyl-6-(pyridin-2-yl)-1H-indol-3-yl)ethyl)cyclopropanesulfonamide]
The EC50 of the first is lower: < 0.5 µM for the first, 0.5 to 3 µM for the second.

`O=S(=O)(N[C@@H](c1cn(CC2(C(F)(F)F)CC2)c2cc(-c3ccccc3C(F)(F)F)ccc12)C(F)(F)F)C1CCC1` [Example 523, (S)—N-(2,2,2-trifluoro-1-(1-((1-(trifluoromethyl)cyclopropyl)methyl)-6-(2-(trifluoromethyl)phenyl)-1H-indol-3-yl)ethyl)cyclobutanesulfonamide] and `[2H]C([2H])(n1cc([C@H](NS(=O)(=O)C2CC2)C(F)(F)F)c2ccc(-c3ccccc3C(F)(F)F)cc21)C(C)(C)C` [Example 564, (S)—N-(1-(1-(2,2-dimethylpropyl-1,1-d2)-6-(2-(trifluoromethyl)phenyl)-1H-indol-3-yl)-2,2,2-trifluoroethyl)cyclopropanesulfonamide] cannot be ordered by EC50: < 0.5 µM for the first, < 0.5 µM for the second.

`[2H]C(C)(NS(=O)(=O)C1CCC1)c1cn(CC(C)(C)C)c2cc(-c3ccccc3C(F)(F)F)ccc12` (stereo not shown) [Example 445, N-(1-(1-neopentyl-6-(2-(trifluoromethyl)phenyl)-1H-indol-3-yl)ethyl-1-d)cyclobutanesulfonamide] and `CC(C)(C)Cn1cc([C@@H](CF)NS(=O)(=O)C2CCC2)c2cc(F)c(-c3ccccc3C(F)(F)F)cc21` [Example 436, (S)—N-(2-fluoro-1-(5-fluoro-1-neopentyl-6-(2-(trifluoromethyl)phenyl)-1H-indol-3-yl)ethyl)cyclobutanesulfonamide] cannot be ordered by EC50: < 0.5 µM for the first, < 0.5 µM for the second.

Compared with `CC(NS(=O)(=O)C1CCC1)c1cn(CC2CCCC2)c2cc(-c3ccccc3C(F)(F)F)ccc12` (stereo not shown) [Example 510, N-(1-(1-(cyclopentylmethyl)-6-(2-(trifluoromethyl)phenyl)-1H-indol-3-yl)ethyl)cyclobutanesulfonamide], `CC(C)(C)Cn1cc([C@H](NS(=O)(=O)C2CC2)C(F)(F)F)c2cc(F)c(-c3cscn3)cc21` [Example 465, N-[(1S)-1-[1-(2,2-dimethylpropyl)-5-fluoro-6-thiazol-4-yl-indol-3-yl]-2,2,2-trifluoro-ethyl]cyclopropanesulfonamide] is higher in EC50: < 0.5 µM for the first, 0.5 to 3 µM for the second. The first is the more potent here.

Same assay, conditions: Table 2, read-out: REVERBα agonism (EC50 class, FRET assay)

Compared with `CN(C)CCn1cc(CCNS(=O)(=O)N(C)C)c2ccc(Br)cc21` [Example 160, [2-(6-bromo-3-{2-[(dimethylsulfamoyl)amino]ethyl}-1H-indol-1-yl)ethyl]dimethylamine], `CN(C)S(=O)(=O)NCCn1cc(CCC(F)(F)F)c2cc(Br)ccc21` [Example 172, N-{2-[5-bromo-3-(3,3,3-trifluoropropyl)-1H-indol-1-yl]ethyl}-N,N-dimethylsulfuric diamide] is lower in EC50: > 3 µM for the first, 0.5 to 3 µM for the second.

`Cc1c(CCNS(=O)(=O)N(C)C)c2ccc(-c3ccncc3)cc2n1CC(C)C` [Example 41, dimethyl({2-[2-methyl-1-(2-methylpropyl)-6-(pyridin-4-yl)-1H-indol-3-yl]ethyl}sulfamoyl)amine] and `Cc1cc(-c2ccncc2)cc2c1c(CCNS(=O)(=O)N(C)C)cn2CC(C)C` [Example 202, dimethyl({2-[4-methyl-1-(2-methylpropyl)-6-(pyridin-4-yl)-1H-indol-3-yl]ethyl}sulfamoyl)amine] cannot be ordered by EC50: > 3 µM for the first, > 3 µM for the second.

First: Cc1c(CCNS(=O)(=O)N(C)C)c2ccc(-c3ccncc3)cc2n1CC(C)C [Compound 236]
Second: CC(C)Cn1cc(C2(NS(=O)(=O)N(C)C)CC2)c2ccc(-c3ccncc3)cc21 [Example 207, dimethyl({1-[1-(2-methylpropyl)-6-(pyridin-4-yl)-1H-indol-3-yl]cyclopropyl}sulfamoyl)amine]
The EC50 of the first is lower: 0.5 to 3 µM for the first, > 3 µM for the second.

Compared with `CC(C)(C)Cn1cc(CC2(NS(=O)(=O)C3CC3)CC2)c2ccc(-c3ccccc3C(F)(F)F)cc21` [Example 406, N-(1-((1-neopentyl-6-(2-(trifluoromethyl)phenyl)-1H-indol-3-yl)methyl)cyclopropyl)cyclopropanesulfonamide], `CC(C)(C)Cn1cc(CCNS(=O)(=O)C2CC2)c2ccc(-c3ccc(F)cc3C(F)(F)F)cc21` [Example 395, N-(2-(6-(4-fluoro-2-(trifluoromethyl)phenyl)-1-neopentyl-1H-indol-3-yl)ethyl)cyclopropanesulfonamide] is lower in EC50: > 3 µM for the first, < 0.5 µM for the second.

`CC(C)Cn1cc(CCNS(=O)(=O)N(C)C)c2ccc(-c3cccc(S(C)(=O)=O)c3)cc21` [Example 60, N-{2-[6-(3-methylsulfonylphenyl)-1-(2-methylpropyl)-1H-indol-3-yl]ethyl}-N,N-dimethylsulfuric diamide] and `CC(C)Cn1cc(CCNS(=O)(=O)N(C)C)c2c(Br)cccc21` [Example 136, ({2-[4-bromo-1-(2-methylpropyl)-1H-indol-3-yl]ethyl}sulfamoyl)dimethylamine] fall in the same range of EC50: 0.5 to 3 µM for the first, 0.5 to 3 µM for the second.

`CC(C)(C)Cc1cn(CCNS(=O)(=O)C2CC2)c2ccc(-c3cccc4ccccc34)cc12` [Example 209, N-(2-(5-(naphthalen-1-yl)-3-neopentyl-1H-indol-1-yl)ethyl)cyclopropane-sulfonamide] and `CC(C)(C)Cc1cn(CCNS(=O)(=O)C2CC2)c2ccc(-c3ccc(Cl)cc3C#N)cc12` [Example 401, N-(2-(5-(4-chloro-2-cyanophenyl)-3-neopentyl-1H-indol-1-yl)ethyl)cyclopropanesulfonamide] cannot be ordered by EC50: < 0.5 µM for the first, < 0.5 µM for the second.

Going from `CC(C)Cn1cc(CCNS(=O)(=O)N(C)C)c2ccc(C3CCC3)cc21` [Example 108, ({2-[6-cyclobutyl-1-(2-methylpropyl)-1H-indol-3-yl]ethyl}sulfamoyl)dimethylamine] to `CC(C)Cn1cc(CCN(C)S(=O)(=O)N(C)C)c2ccc(C#N)cc21` [Compound 122, 3-{2-[(dimethylsulfamoyl)(methyl)amino]ethyl}-1-(2-methylpropyl)-1H-indole-6-carbonitrile], the EC50 rises from < 0.5 µM to > 3 µM.

`CC(C)(C)Cc1cn(CCNS(=O)(=O)C2CC2)c2ccc(-c3ccc(F)cc3C(F)(F)F)c(F)c12` [Example 295] and `CC(C)(C)Cc1cn(CCNS(=O)(=O)C2CC2)c2ccc(C(F)(F)F)cc12` [Example 292, N-(2-(3-neopentyl-5-(trifluoromethyl)-1H-indol-1-yl)ethyl)cyclopropanesulfonamide] fall in the same range of EC50: 0.5 to 3 µM for the first, 0.5 to 3 µM for the second.

Compared with `CC(C)(C)Cn1cc([C@H](NS(=O)(=O)C2CC2)C(F)(F)F)c2cc(F)c(-c3ccn[nH]3)cc21` [Example 380, N-[(1S)-1-[1-(2,2-dimethylpropyl)-5-fluoro-6-(1H-pyrazol-5-yl)indol-3-yl]-2,2,2-trifluoro-ethyl]cyclopropanesulfonamide], `CC(C)Cn1cc(C(C)CNS(=O)(=O)C2CC2)c2ccc(-c3ccncc3)cc21` (stereo not shown) [Compound 253] is higher in EC50: < 0.5 µM for the first, 0.5 to 3 µM for the second.

`CN(C)S(=O)(=O)NCCc1cn(Cc2ccccc2)c2cc(-c3ccncc3)ccc12` [Compound 8] and `CC(C)Cn1cc(C(C)CNS(=O)(=O)C(C)C)c2ccc(-c3ccncc3)cc21` (stereo not shown) [Compound 251] cannot be ordered by EC50: < 0.5 µM for the first, < 0.5 µM for the second.

Source: patent US20230339886A1 (University of Florida Research Foundation, Incorporated, priority 2020, published 2023)
